Data taken from patent US20100047374A1, “COMPOSITION FOR PROTECTING MUSCLE DAMAGE” (priority 2007, published 2010).

What was measured:
[1] = test system: CXCL-1; assay: Muscle damage-protecting effect using myotube cell: CXCL-1 gene expression by quantitative real time PCR after H2O2 treatment; type: cell-based, mouse; conditions: C2C12 myotube cell, 10 μg/ml for 24 hours, then 1 mM H2O2 for 2 hours, relative to GAPDH, compared to hydrogen peroxide group, FIG. 4
Method: (§1) In this evaluation system, the C2C12 myoblast cell line derived from a mouse was used. The cell line is preserved in RIKEN BIORESOURCE CENTER, Japan, and the cell line can be shared. The cell is differentiated from a mononuclear myoblast cell into a maltinuclear myotube cell by differentiation induction, to thereby have a muscle fiber-like form. The cell was seeded in a collagen I-coated 35-mm dish and cultured in DMEM (11965-092, manufactured by GIBCO)+10% FBS (hereinafter, may be referred to as a growth medium) at 37° C. under 5% CO2 until the culture had 90% confluence. […] The concentration of the purified total RNA was determined based on the measurement results of the absorbance (260 nm, 280 nm). […] A quantitative real time PCR was performed by using the obtained cDNA. In the quantitative real time PCR, qPCR super mix-UDG with ROX was used as a reaction reagent, as primers for IL-6 and CXCL-1, Mm00446190 (manufactured by AB Corporation) and Mm00433859 (manufactured by AB Corporation) were used, respectively, and as a primer for […] (hereinafter, may be referred to as GAPDH) which was used as an internal standard, Mm99999915 (manufactured by AB Corporation) was used. […]

[2] = test system: IL-6; assay: Muscle damage-protecting effect using myotube cell: IL-6 gene expression by quantitative real time PCR after H2O2 treatment; type: cell-based, mouse; conditions: C2C12 myotube cell, 10 μg/ml for 24 hours, then 1 mM H2O2 for 2 hours, relative to GAPDH, compared to hydrogen peroxide group, FIGS. 3 and 4
Method: as §1

CCCCCCCCCCCCCCC[C@@H](O)[C@@H](N)CO (single isomer, unassigned) [sphinganine]
gene expression of CXCL-1 [1]: effect of inhibiting | gene expression of IL-6 [2]: effect of inhibiting
